From patent publication US12569452B2, “Ophthalmic compositions comprising F6H8” (NOVALIQ GMBH, priority 2017, dated 2026)

Key:
Assay type in all cases: in vivo, human
[1] = tested on: patients with mild to moderate dry eye disease; assay: Tear film thickness (TFT) by high resolution optical coherence tomography, Example 2
Experimental: (§1) The study is conducted to evaluate the influence of 1-perfluorohexyl-octane (F6H8, NovaTears®) on tear film thickness in patients with mild to moderate dry eye disease. Herein the administration of 1-perfluorohexyl-octane is compared to Hydrabak (0.9% sodium chloride, Laboratoires Théa).
(§2) 48 patients (safety population) are randomized (1:1 ratio) to receive either F6H8 or Hydrabak. One drop of F6H8 (droplet volume=10-11 μl) or Hydrabak is instilled in each eye 4 times daily for 30 days. DED relevant clinical measures are recorded at Visit 1 (day 0, baseline), Visit 2 (15±2 days) and Visit 3 (30±3 days). The primary outcome variable includes Tear film thickness (TFT) as measured with high resolution optical coherence tomography (OCT), while secondary outcome variables comprised Lipid Layer Thickness (LLT) of the tear film (with LipiView Interferometer), Non-Invasive Tear Break Up Time (NITFBUT) with Bon Antares Tear Film Topographer, Dynamic Meibomian Gland Imaging (DMI) with LipiView Interferometer, Blink frequency (with LipiView interferometer), Dry Eye Visual Analogue Scale (VAS), Corneal fluorescein staining, Conjunctival lissamine green staining, Schirmer I test, Tear Film Break Up Time (TFBUT), Ocular Surface Disease Index (OSDI), Adverse Events (AEs) and others.

[2] = tested on: patients with mild to moderate dry eye disease; assay: Lipid Layer Thickness (LLT) of the tear film with LipiView Interferometer, Example 2; conditions: for Lipid Layer Thickness measured in the morning before first daily dosing (relative change from baseline in %): 4 times daily dosing
Experimental: as §1, §2

[3] = tested on: patients with mild to moderate dry eye disease; assay: Adverse events, Example 2; conditions: 4 times daily for 30 days; all adverse effects mild, low incidence
Experimental: as §2

[4] = tested on: Dry Eye Disease (DED) patients with MGD involvement; assay: Corneal fluorescein staining (NEI scale), Phase 2 study Example 3; conditions: vs saline
Experimental: (§3) A Phase 2, Multi-Center, Randomized, Double-Masked, Saline-Controlled Study to Evaluate the Effect of 1-Perfluorohexyloctane (NOV03; F6H8) at two different dosing regimens on signs and symptoms of Dry Eye Disease (DED). The study was performed at 11 investigational cites in the United States. The study was reviewed and approved by the respective ethics committees and registered at www.clinicaltrials.gov (NCT03333057).
(§4) The study is performed to evaluate the safety, efficacy and tolerability of F6H8 at two different dosing regimens compared to saline on signs and symptoms of Dry Eye Disease.
(§5) Study subjects receive one of the following treatments over a period of 4 visits on day 1, 15, 30 and 60: • (1) F6H8 (NOV03), 4 times daily (QID); • (2) F6H8 (NOV03), 2 times daily (BID); • (3) Saline solution (0.9% sodium chloride solution), 4 times daily (QID); • (4) Saline Solution (0.9% sodium chloride solution), 2 times daily (BID).
(§6) In the BID treatment, study subjects instil bilaterally one drop in each lower eyelid conjunctival fornix two times daily. The instilled drop volume of F6H8 is about 10-12 μl, translating to a single dose of 13.5-16.2 mg (with F6H8 density=1.35 g/ml). […]

[5] = tested on: Dry Eye Disease (DED) patients with MGD involvement; assay: Eye Dryness Score on Visual Analog Scale (VAS), Phase 2 study Example 3; conditions: BID, 2, 4 and 8 weeks
Experimental: as §3, §4, §5, §6

[6] = tested on: Dry Eye Disease (DED) patients with MGD involvement; assay: Ocular Surface Disease Index (OSDI), Phase 2 study Example 3; conditions: BID, 2, 4 and 8 weeks
Experimental: as §3
The study is performed to evaluate the safety, efficacy and tolerability of F6H8 at two different dosing regimens compared to saline on signs and symptoms of Dry Eye Disease. […]
The subjects were asked to fill out an OSDI© questionnaire (see for example, Schiffman R M, et al., Arch Ophthalmol. 2000; 118:615-621) consisting of 12 questions, and asked to respond on a scale of 0 to 4, with 0 corresponding to ‘none of the time’ and 4 corresponding to “all of the time”. The questions assess dry eye symptoms experienced by the patient within past week in terms of the following ocular symptoms: sensitivity to light, gritty sensation, pain or sore eyes, blurriness, and poor vision; vision-related function, in terms of problems in: reading, driving at night, working on a computer or bank machine, watching television; and environmental factors or triggers i.e. discomfort during: windy conditions, places with low humidity, and areas with air condition. […]

[7] = tested on: Dry Eye Disease (DED) patients with MGD involvement; assay: Adverse events, Phase 2 study Example 3; conditions: daily dose 20-24 μl
Experimental: as §3, §4, §5
In the BID treatment, study subjects instil bilaterally one drop in each lower eyelid conjunctival fornix two times daily. The instilled drop volume of F6H8 is about 10-12 μl, translating to a single dose of 13.5-16.2 mg (with F6H8 density=1.35 g/ml).

[8] = tested on: patients with mild to moderate dry eye disease; assay: Corneal fluorescein staining, Example 2; conditions: 4 times daily, 4 weeks
Experimental: as §2

What does the source list for `CCCCCCCCC(F)(F)C(F)(F)C(F)(F)C(F)(F)C(F)(F)C(F)(F)F` [F6H8, 1-perfluorohexyloctane]?
Tear Film Thickness after continuous dosing 4-times daily (relative change from baseline in %) ([1]; 2 weeks, 10 min): 8.71%; Tear Film Thickness after continuous dosing 4-times daily (relative change from baseline in %) ([1]; 2 weeks, 20 min): 8.57%; Tear Film Thickness after continuous dosing 4-times daily (relative change from baseline in %) ([1]; 2 weeks, before instillation): 1.43%; Tear Film Thickness after continuous dosing 4-times daily (relative change from baseline in %) ([1]; 4 weeks, 10 min): 9.12%; Tear Film Thickness after continuous dosing 4-times daily (relative change from baseline in %) ([1]; 4 weeks, 20 min): 10.35%; Tear Film Thickness after continuous dosing 4-times daily (relative change from baseline in %) ([1]; 4 weeks, before instillation): 3.22%; Relative change (%) in Tear film thickness from baseline, F6H8 compared with Hydrabak (primary MMRM analysis) ([1]; 48 subjects of the safety population): significantly higher; Tear film thickness, least squares mean difference F6H8 vs Hydrabak (MMRM, post-hoc) ([1]; Visit 1, safety population 48 subjects): 1.29%; Tear film thickness, least squares mean difference F6H8 vs Hydrabak (MMRM, post-hoc) ([1]; Visit 2, safety population 48 subjects): 4.33%; Tear film thickness, least squares mean difference F6H8 vs Hydrabak (MMRM, post-hoc) ([1]; Visit 3, reached significance): 6.42%; Tear Film Thickness at study start (relative change from baseline in %) ([1]; single dose on Visit 1, 10 min after instillation): 13.39%; Tear Film Thickness at study start (relative change from baseline in %) ([1]; single dose on Visit 1, 20 min after instillation): 6.63%; Tear Film Thickness at study start (relative change from baseline in %) ([1]; single dose on Visit 1, 40 min after instillation): 4.64%; Tear Film Thickness at study start (relative change from baseline in %) ([1]; single dose on Visit 1, 60 min after instillation): 4.03%; Tear Film Thickness at study start (relative change from baseline in %) ([1]; single dose on Visit 1, 120 min after instillation): 4.76%; Tear Film Thickness at study start (relative change from baseline in %) ([1]; single dose on Visit 1, 240 min after instillation): 3.28%; Lipid Layer Thickness measured in the morning before first daily dosing (relative change from baseline in %) ([2]; 2 weeks): 6.83%; Lipid Layer Thickness measured in the morning before first daily dosing (relative change from baseline in %) ([2]; 4 weeks): 4.10%; LLT relative change from baseline, estimated least square mean difference F6H8 vs Hydrabak (post hoc MMRM) ([2]; values recorded before instillation): 16.34%; Safety and tolerability in patients with DED [3]: safe and well tolerated; Total corneal fluorescein staining (reduction of ocular surface damage of total corneal region) ([4]; BID dosing regimen, 8 weeks): met its prespecified primary efficacy endpoint; Reduction of ocular surface damage of central, nasal and temporal corneal region ([4]; BID, fluorescein staining NEI scale): clear improvements; VAS symptoms of dryness (severity, frequency, awareness of dryness, blurred vision, sensitivity to light) over placebo [5]: highly statistical significant improvement; Symptoms of dryness by OSDI score incl. total OSDI score over placebo [6]: highly statistical significant improvement; Adverse effects, 2-times daily schedule (BID) [7]: trend towards less adverse effects; Corneal Staining reduction compared with Hydrabak group [8]: tended to be stronger reduced
